Measured values taken from patent publication US7300927B2, “Method for treating or preventing Alzheimer's disease” (priority 1997, dated 2007).

Assays:
PNET2 cells [1] = experiment: Neuritic sprouting and neuronal differentiation in PNET2 cells; format: cell-based; conditions: for NTP species expression associated with neuritic growth/sprouting: PNET2 and SH-Sy5y cells (not separated); for neuritic sprouting and neuronal differentiation: PNET2 cells
Description: (§1) Neuritic sprouting and neuronal differentiation were induced in PNET2 and SH-Sy5y cells by insulin, PMA, or RA stimulation. […] Thus, expression of the immature or fetal forms of NTP are regulated by mechanisms and growth factors distinct from those involved in modulating expression of the 21 kD and 26 kD NTP molecules. Therefore, expression of fetal NTP molecules/genes can be mediated through the IRS-1 cascade, whereas expression of adult brain/AD-associated NTP genes can be regulated mainly through protein kinase C pathways.

SH-Sy5y cells = experiment: Neuritic sprouting and neuronal differentiation in SH-Sy5y cells; format: cell-based
Description: as §1

mice = conditions: 13 month old mice, administered directly to the brains; cited from earlier work
PNET1 cells = experiment: Insulin responsiveness, NTP modulation and signal transduction in PNET1 cells; format: cell-based
Description: Insulin is an important mediator of growth and differentiation in CNS neurons.
Correspondingly, the insulin-stimulated association between PI3 kinase and phosphorylated IRS-1 was also impaired in PNET1 cells. In essence, impaired insulin-mediated tyrosyl phosphorylation of IRS-1 in PNET1 cells halted activation of the insulin signal transduction cascade, and subsequent events leading to modulated gene (NTP) expression. […] The results were confirmed by absent association between PI3 kinase and IRS-1-PY in PNET1 cells after insulin stimulation.

PNET2 cells [2] = experiment: Insulin stimulated differentiation and NTP expression in PNET2 cells; format: cell-based

Molecule	NTP species expression associated with neuritic growth/sprouting (PNET2 cells [1])	neuritic sprouting and neuronal differentiation (PNET2 cells [1])	neuritic sprouting and neuronal differentiation (SH-Sy5y cells)	animals showing a delay of about two months in any memory deficit (mice)	animals that never develop a memory deficit (mice)	induction of differentiation (PNET1 cells)	insulin modulation of NTP (PNET1 cells)	insulin receptor phosphorylation (PNET1 cells)	insulin-mediated tyrosyl phosphorylation of IRS-1 (PNET1 cells)	insulin-stimulated association between PI3 kinase and phosphorylated IRS-1 (PNET1 cells)	synthesis and steady state levels of all five NTP species (PNET2 cells [2]; following the transient increases)	levels of the 39 kD, 18 kD and 15 kD NTP species (PNET2 cells [2]; insulin stimulated differentiation)	phosphorylation of IRS-1, up-regulation of NTP, neuronal differentiation (PNET2 cells [2]; insulin stimulation)
CCCCCCCCCCCCCC(=O)O[C@@H]1[C@@H](C)[C@@]2(O)[C@@H](C=C(CO)C[C@]3(O)C(=O)C(C)=C[C@@H]23)[C@@H]2C(C)(C)[C@]12OC(C)=O [PMA]	modulated expression of the 21 kD and 26 kD NTP species	induced	induced										
O=C(CCn1cnc2c(=O)[nH]cnc21)Nc1ccc(C(=O)[O-])cc1.[K+] [AIT-082]				about 50%	50%								
Insulin: Insulin, an important mediator of growth and differentiation in CNS neurons	increased expression of the fetal brain and PNET-dominant forms of NTP (15 kD and 18 kD)	induced	induced			failure of insulin to induce differentiation	absent insulin modulation of NTP	normal insulin receptor phosphorylation	impaired	also impaired	sustained increases	rapid (within 10 minutes) but transient increases	responded to insulin stimulation with phosphorylation of IRS-1, up-regulation of NTP, and neuronal differentiation
CC1=C(/C=C/C(C)=C/C=C/C(C)=C/C(=O)O)C(C)(C)CCC1 [RA]	modulated expression of the 21 kD and 26 kD NTP species	induced	induced										
